In patent US20100184786A1, “Polar Quinazolines” (Wyeth LLC, priority 2008, published 2010):

What was measured:
[1] = target: T1, human LXRβ (Homo sapiens, UniProt P55055); assay: Ligand-binding test procedure for human LXRβ (3H T0901317 tracer, flash plates); settings: competition with 3H T0901317; read-out: hLXRb binding IC50
T1 construct: biotin (biotinylated); made in house; host or cells: E. coli
T1 sequence (P55055 1-460): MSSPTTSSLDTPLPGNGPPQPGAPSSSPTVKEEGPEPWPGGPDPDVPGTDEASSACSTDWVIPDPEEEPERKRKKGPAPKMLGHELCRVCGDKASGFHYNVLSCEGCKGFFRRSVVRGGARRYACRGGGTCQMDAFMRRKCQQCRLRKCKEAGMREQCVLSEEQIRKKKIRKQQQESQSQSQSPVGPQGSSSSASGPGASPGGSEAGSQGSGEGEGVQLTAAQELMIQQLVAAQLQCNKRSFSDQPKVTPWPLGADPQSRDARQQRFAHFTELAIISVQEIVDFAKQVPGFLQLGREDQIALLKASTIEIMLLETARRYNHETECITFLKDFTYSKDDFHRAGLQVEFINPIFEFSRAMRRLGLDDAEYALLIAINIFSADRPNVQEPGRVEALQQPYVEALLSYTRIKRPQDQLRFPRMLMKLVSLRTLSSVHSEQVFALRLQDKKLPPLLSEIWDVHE
Experimental: I. Ligand-Binding Test Procedure for Human LXRβ.
• Buffer: 100 mM KCl, 100 mM TRIS (pH 7.4 at +4° C.), 8.6% glycerol, 0.1 mM PMSF*, 2 mM MTG*, 0.2% CHAPS (* not used in wash buffer) • Tracer: ^3H T0901317 • Receptor source: E. coli extracted from cells expressing biotinylated hLXRβ. Extract was made in a similar buffer as above, but with 50 mM TRIS.
• Washed streptavidin and coated flash plates with wash buffer. • Diluted receptor extract to give Bmax˜4000 cpm and add to the wells. • Wrapped the plates in aluminum foil and stored them at +4° C. overnight.
(§1) • Made a dilution series in DMSO of the test ligands. • Made a 5 nM solution of the radioactive tracer in buffer. • Mixed 2500 diluted tracer with 50 of the test ligand from each concentration of the dilution series. • Washed the receptor-coated flash plates. • Added 2000 per well of the ligand/radiolabel mixture to the receptor-coated flash plates. • Wrapped the plates in aluminum foil and incubate at +4° C. over night.
• Aspirated wells, and washed the flashed plates. Sealed the plate. • Measured the remaining radioactivity in the plate.

[2] = target: T2, human LXRα (Homo sapiens, UniProt Q13133); assay: Ligand-binding test procedure for human LXRα (3H T0901317 tracer, flash plates); settings: competition with 3H T0901317; read-out: hLXRa binding IC50
T2 construct: biotin (biotinylated); made in house; host or cells: E. coli
T2 sequence (Q13133 1-447): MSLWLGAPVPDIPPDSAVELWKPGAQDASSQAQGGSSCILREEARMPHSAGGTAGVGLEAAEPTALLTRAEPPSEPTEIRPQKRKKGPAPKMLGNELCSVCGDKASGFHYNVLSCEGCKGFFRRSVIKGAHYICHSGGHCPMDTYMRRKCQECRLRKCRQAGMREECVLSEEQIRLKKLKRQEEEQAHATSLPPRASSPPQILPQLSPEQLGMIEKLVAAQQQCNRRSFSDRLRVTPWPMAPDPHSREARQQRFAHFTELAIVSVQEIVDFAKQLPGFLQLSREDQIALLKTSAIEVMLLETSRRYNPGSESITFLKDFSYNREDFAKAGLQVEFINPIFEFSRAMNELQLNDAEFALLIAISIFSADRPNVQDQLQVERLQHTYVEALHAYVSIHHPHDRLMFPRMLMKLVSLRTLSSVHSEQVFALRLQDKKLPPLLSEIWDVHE
Experimental: II. Ligand-Binding Test Procedure for Human LXRa.
• Buffer: 100 mM KCl, 100 mM TRIS (pH 7.4 at +4° C.), 8.6% glycerol, 0.1 mM PMSF*, 2 mM MTG*, 0.2% CHAPS (* not used in wash buffer) • Tracer: ^3H T0901317 • Receptor source: E. coli extract from cells expressing biotinylated hLXRα. Extract was made in a similar buffer as above, but with 50 mM TRIS.
• Washed streptavidin and coated flash plates with wash buffer. • Diluted receptor extract to give Bmax˜4000 cpm and add to the wells. • Wrapped the plates in aluminum foil and stored them at +4° C. over night.
as §1
• Aspirated wells, and wash the flashed plates. Sealed the plate. • Measured the remaining radioactivity in the plate.

IC50 [1]	IC50 [2]	Structure (SMILES)
0.329 µM	3.13 µM	CS(=O)(=O)c1cc(Oc2ccc(Cl)c(-c3ncnc4c(Cl)cccc34)c2)ccc1C#N [Example 1, 4-[4-chloro-3-(8-chloroquinazolin-4-yl)phenoxy]-2-(methylsulfonyl)benzonitrile]
0.152 µM	1.06 µM	CS(=O)(=O)c1cc(Oc2ccc(Cl)c(-c3ncnc4c(C(F)(F)F)cccc34)c2)ccc1C#N [Example 2, 4-{4-chloro-3-[8-(trifluoromethyl)quinazolin-4-yl]phenoxy}-2-(methylsulfonyl)benzonitrile]
1.26 µM	3.84 µM	CS(=O)(=O)c1cc(Oc2ccc(Cl)c(-c3ncnc4c(Cl)cccc34)c2)ccc1C(N)=O [Example 6, 4-[4-chloro-3-(8-chloroquinazolin-4-yl)phenoxy]-2-(methylsulfonyl)benzamide]
0.288 µM	0.986 µM	CS(=O)(=O)c1cc(Oc2ccc(Cl)c(-c3ncnc4c(C(F)(F)F)cccc34)c2)ccc1C(N)=O [Example 7, 4-{4-chloro-3-[8-(trifluoromethyl)quinazolin-4-yl]phenoxy}-2-(methylsulfonyl)benzamide]
0.286 µM	1.53 µM	N#CCS(=O)(=O)c1cccc(Oc2ccc(F)c(-c3ncnc4c(Cl)cccc34)c2)c1 [Example 10, ({3-[3-(8-chloroquinazolin-4-yl)-4-fluorophenoxy]phenyl}sulfonyl)acetonitrile]
0.336 µM	2.88 µM	NS(=O)(=O)c1cccc(Oc2ccc(F)c(-c3ncnc4c(Cl)cccc34)c2)c1 [Example 20, 3-[3-(8-chloroquinazolin-4-yl)-4-fluorophenoxy]benzenesulfonamide]
0.184 µM	2.48 µM	NC(=O)CCCS(=O)(=O)c1cccc(Oc2ccc(F)c(-c3ncnc4c(C(F)(F)F)cccc34)c2)c1 [Example 26, 4-[(3-{4-fluoro-3-[8-(trifluoromethyl)quinazolin-4-yl]phenoxy}phenyl)sulfonyl]butanamide]
1.2 µM	16.7 µM	O=C(O)CCCS(=O)(=O)c1cccc(Oc2ccc(F)c(-c3ncnc4c(C(F)(F)F)cccc34)c2)c1 [Example 27, 4-[(3-{4-fluoro-3-[8-(trifluoromethyl)quinazolin-4-yl]phenoxy}phenyl)sulfonyl]butanoic acid]
0.157 µM	1.33 µM	CS(=O)(=O)NCCCS(=O)(=O)c1cccc(Oc2ccc(F)c(-c3ncnc4c(C(F)(F)F)cccc34)c2)c1 [Example 29, N-{3-[(3-{4-fluoro-3-[8-(trifluoromethyl)quinazolin-4-yl]phenoxy}phenyl)sulfonyl]propyl}-methanesulfonamide]
0.13 µM	1.35 µM	NC(=O)CCCCS(=O)(=O)c1cccc(Oc2ccc(F)c(-c3ncnc4c(C(F)(F)F)cccc34)c2)c1 [Example 33, 5-[(3-{4-fluoro-3-[8-(trifluoromethyl)quinazolin-4-yl]phenoxy}phenyl)sulfonyl]pentanamide]
1.43 µM	11.9 µM	O=C(O)CCCCS(=O)(=O)c1cccc(Oc2ccc(F)c(-c3ncnc4c(C(F)(F)F)cccc34)c2)c1 [Example 34, 5-[(3-{4-fluoro-3-[8-(trifluoromethyl)quinazolin-4-yl]phenoxy}phenyl)sulfonyl]pentanoic acid]
0.584 µM	9.42 µM	NCCCCS(=O)(=O)c1cccc(Oc2ccc(F)c(-c3ncnc4c(C(F)(F)F)cccc34)c2)c1 [Example 35, 4-[(3-{4-fluoro-3-[8-(trifluoromethyl)quinazolin-4-yl]phenoxy}phenyl)sulfonyl]butan-1-amine]
0.221 µM	2.73 µM	CS(=O)(=O)NCCCCS(=O)(=O)c1cccc(Oc2ccc(F)c(-c3ncnc4c(C(F)(F)F)cccc34)c2)c1 [Example 36, N-{4-[(3-{4-fluoro-3-[8-(trifluoromethyl)quinazolin-4-yl]phenoxy}phenyl)sulfonyl]butyl]methanesulfonamide]
0.506 µM	4.1 µM	CS(=O)(=O)c1cc(Oc2ccc(F)c(-c3ncnc4c(C(F)(F)F)cccc34)c2)ccc1C#N [Example 38, 4-{4-fluoro-3-[8-(trifluoromethyl)quinazolin-4-yl]phenoxy}-2-(methylsulfonyl)benzonitrile]
1.21 µM	4.37 µM	CS(=O)(=O)c1cc(Oc2ccc(F)c(-c3ncnc4c(C(F)(F)F)cccc34)c2)ccc1C(N)=O [Example 39, 4-{4-fluoro-3-[8-(trifluoromethyl)quinazolin-4-yl]phenoxy}-2-(methylsulfonyl)benzamide]
1.06 µM	–	CS(=O)(=O)c1cc(Oc2ccc(F)c(-c3ncnc4c(Cl)cccc34)c2)ccc1C#N [Example 41, 4-[3-(8-chloroquinazolin-4-yl)-4-fluorophenoxy]-2-(methylsulfonyl)benzonitrile]
4.9 µM	10.9 µM	CS(=O)(=O)c1cc(Oc2ccc(F)c(-c3ncnc4c(Cl)cccc34)c2)ccc1C(N)=O [Example 42, 4-[3-(8-chloroquinazolin-4-yl)-4-fluorophenoxy]-2-(methylsulfonyl)benzamide]
3.59 µM	–	CNCCCCS(=O)(=O)c1cccc(Oc2ccc(F)c(-c3ncnc4c(Cl)cccc34)c2)c1 [Example 43, 4-({3-[3-(8-chloroquinazolin-4-yl)-4-fluorophenoxy]phenyl}sulfonyl)-N-methylbutan-1-amine]
0.965 µM	7.31 µM	CNCCCS(=O)(=O)c1cccc(Oc2ccc(F)c(-c3ncnc4c(Cl)cccc34)c2)c1 [Example 44, 3-({3-[3-(8-chloroquinazolin-4-yl)-4-fluorophenoxy]phenyl}sulfonyl)-N-methylpropan-1-amine]
1.88 µM	11.5 µM	NCCCCS(=O)(=O)c1cccc(Oc2ccc(F)c(-c3ncnc4c(Cl)cccc34)c2)c1 [Example 45, 4-({3-[3-(8-chloroquinazolin-4-yl)-4-fluorophenoxy]phenyl}sulfonyl)butan-1-amine]
0.296 µM	8.18 µM	NCCCS(=O)(=O)c1cccc(Oc2ccc(F)c(-c3ncnc4c(Cl)cccc34)c2)c1 [Example 46, 3-({3-[3-(8-chloroquinazolin-4-yl)-4-fluorophenoxy]phenyl}sulfonyl)propan-1-amine]
1.02 µM	–	CN(CCCCS(=O)(=O)c1cccc(Oc2ccc(F)c(-c3ncnc4c(Cl)cccc34)c2)c1)S(C)(=O)=O [Example 48, N-[4-({3-[3-(8-chloroquinazolin-4-yl)-4-fluorophenoxy]phenyl}sulfonyl)butyl]-N-methylmethanesulfonamide]
1.99 µM	–	CN(CCCS(=O)(=O)c1cccc(Oc2ccc(F)c(-c3ncnc4c(Cl)cccc34)c2)c1)S(C)(=O)=O [Example 49, N-[3-({3-[3-(8-chloroquinazolin-4-yl)-4-fluorophenoxy]phenyl}sulfonyl)propyl]-N-methylmethanesulfonamide]
3.43 µM	–	O=C(O)CCCCS(=O)(=O)c1cccc(Oc2ccc(F)c(-c3ncnc4c(Cl)cccc34)c2)c1 [Example 56, 5-({3-[3-(8-chloroquinazolin-4-yl)-4-fluorophenoxy]phenyl}sulfonyl)pentanoic acid]
4.21 µM	–	O=C(O)CCCS(=O)(=O)c1cccc(Oc2ccc(F)c(-c3ncnc4c(Cl)cccc34)c2)c1 [Example 57, 4-({3-[3-(8-chloroquinazolin-4-yl)-4-fluorophenoxy]phenyl}sulfonyl)butanoic acid]
